This passage reports inhibition results from patent US20170057955A1, “Pyridopyrimidinone Compounds for Modulating the Catalytic Activity of Histone Lysine Demethylases (KDMs)” (Dong-A Socio Holdings Co., Ltd., priority 2015, published 2017).

The assay concerns the target T1, Recombinant human JARID1B/KDM5B (Homo sapiens, UniProt Q9UGL1).
T1 construct: purchased Active Motif 31432; host or cells: Sf9 insect cells
The experiment in a line: LANCE Ultra TR-FRET JARID1B (KDM5B) demethylase inhibition assay. As to conditions: 0.1 uM of test-compounds, FLAG-JARID1B, 500 nM biotinylated H3K4me3 peptide substrate, 30 min at room temperature. In kind it is biochemical. In a few lines: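 FLAG-tagged JARID1B from Sf9 cells, pre-incubated 5 min with 0.1 uM compound (1% DMSO), then 500 nM biotinylated H3K4me3 peptide, 500 uM 2-OG, 25 uM Fe(II), 2 mM ascorbate in pH 7.5 Hepes buffer. After 30 min at room temperature, H3K4me2/1 product detected by TR-FRET (665/590 nm ratio).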

T1 sequence (Q9UGL1 whole entry): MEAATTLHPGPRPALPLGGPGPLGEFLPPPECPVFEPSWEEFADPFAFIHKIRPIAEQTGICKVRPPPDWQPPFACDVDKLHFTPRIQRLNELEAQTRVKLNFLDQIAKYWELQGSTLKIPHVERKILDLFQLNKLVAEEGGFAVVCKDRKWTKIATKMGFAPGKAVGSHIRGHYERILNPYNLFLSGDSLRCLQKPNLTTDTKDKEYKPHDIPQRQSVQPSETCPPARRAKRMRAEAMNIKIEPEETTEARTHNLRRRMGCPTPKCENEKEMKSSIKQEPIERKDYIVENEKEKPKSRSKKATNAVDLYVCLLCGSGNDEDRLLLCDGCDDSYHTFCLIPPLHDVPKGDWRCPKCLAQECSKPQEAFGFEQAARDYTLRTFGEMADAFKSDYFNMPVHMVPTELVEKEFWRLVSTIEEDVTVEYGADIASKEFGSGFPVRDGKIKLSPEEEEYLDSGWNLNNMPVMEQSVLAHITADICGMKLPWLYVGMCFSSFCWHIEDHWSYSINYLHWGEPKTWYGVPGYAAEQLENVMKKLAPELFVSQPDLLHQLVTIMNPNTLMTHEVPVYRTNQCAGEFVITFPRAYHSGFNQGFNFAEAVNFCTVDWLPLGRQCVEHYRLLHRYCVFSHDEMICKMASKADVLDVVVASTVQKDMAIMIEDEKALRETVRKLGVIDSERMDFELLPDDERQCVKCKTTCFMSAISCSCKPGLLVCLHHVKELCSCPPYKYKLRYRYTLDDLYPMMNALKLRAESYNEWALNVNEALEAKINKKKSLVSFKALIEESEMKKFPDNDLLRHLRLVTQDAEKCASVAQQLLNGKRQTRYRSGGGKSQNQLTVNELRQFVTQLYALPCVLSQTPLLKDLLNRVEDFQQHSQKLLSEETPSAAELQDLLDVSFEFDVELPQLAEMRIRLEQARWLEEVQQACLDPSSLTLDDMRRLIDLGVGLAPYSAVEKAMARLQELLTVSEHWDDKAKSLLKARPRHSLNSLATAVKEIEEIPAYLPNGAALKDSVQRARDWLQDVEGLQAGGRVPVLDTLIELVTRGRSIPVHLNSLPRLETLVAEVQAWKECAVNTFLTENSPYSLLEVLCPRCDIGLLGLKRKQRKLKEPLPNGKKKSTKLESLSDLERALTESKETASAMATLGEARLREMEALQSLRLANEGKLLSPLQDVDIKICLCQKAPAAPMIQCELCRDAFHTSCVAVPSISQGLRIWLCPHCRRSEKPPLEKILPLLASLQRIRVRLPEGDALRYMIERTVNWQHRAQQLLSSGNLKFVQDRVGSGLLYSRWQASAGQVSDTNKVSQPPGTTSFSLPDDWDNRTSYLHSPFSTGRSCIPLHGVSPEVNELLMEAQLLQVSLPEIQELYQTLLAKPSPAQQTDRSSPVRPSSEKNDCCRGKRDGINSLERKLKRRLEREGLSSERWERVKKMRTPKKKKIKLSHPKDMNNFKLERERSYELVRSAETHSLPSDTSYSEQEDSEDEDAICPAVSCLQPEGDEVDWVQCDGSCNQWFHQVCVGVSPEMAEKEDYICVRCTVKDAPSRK

As to `CC(c1ccccc1)c1nc2c(-c3csc(NCCO)n3)nccc2c(=O)[nH]1` (stereo not shown) [Compound 141, 8-(2-((2-hydroxyethyl)amino)thiazol-4-yl)-2-(1-phenylethyl)pyrido[3,4-d]pyrimidin-4(3H)-one], the inhibition at 0.1 µM is less than 20%. The figure for `CN1CCC(Nc2nc(-c3nccc4c(=O)[nH]c(COc5ccc(F)c(Cl)c5)nc34)cs2)CC1` [Compound 94, 2-((3-chloro-4-fluorophenoxy)methyl)-8-(2-((1-methylpiperidin-4-yl)amino)thiazol-4-yl)pyrido[3,4-d]pyrimidin-4(3H)-one] is not below 50%.

For the compound `CN1CCN(Cc2ccc(-c3cn(-c4nccc5c(=O)[nH]cnc45)nc3N)cc2)CC1` [Compound 33, 8-(3-amino-4-(4-((4-methylpiperazin-1-yl)methyl)phenyl)-1H-pyrazol-1-yl)pyrido[3,4-d]pyrimidin-4(3H)-one], the inhibition at 0.1 µM was in the range of 20 to 50%.

Take `CN(C)CCNc1nc(-c2nccc3c(=O)[nH]cnc23)cs1` [Compound 43, 8-(2-((2-(dimethylamino)ethyl)amino)thiazol-4-yl)pyrido[3,4-d]pyrimidin-4(3H)-one]: the inhibition at 0.1 µM lay within 20 to 50%.

On to `O=c1[nH]c(COc2cc(F)cc(F)c2)nc2c(-c3csc(NCCO)n3)nccc12` [Compound 129, 2-((3,5-difluorophenoxy)methyl)-8-(2-((2-hydroxyethyl)amino)thiazol-4-yl)pyrido[3,4-d]pyrimidin-4(3H)-one], for which the inhibition at 0.1 µM is less than 20%. Then `O=c1[nH]c(COc2ccc(F)c(Cl)c2)nc2c(-c3csc(NCCO)n3)nccc12` [Compound 81, 2-((3-chloro-4-fluorophenoxy)methyl)-8-(2-((2-hydroxyethyl)amino)thiazol-4-yl)pyrido[3,4-d]pyrimidin-4(3H)-one], with not below 50%.

For `O=C(c1ccccc1)c1ccc(OCc2nc3c(-c4csc(NCCO)n4)nccc3c(=O)[nH]2)cc1` [Compound 160, 2-((4-benzoylphenoxy)methyl)-8-(2-((2-hydroxyethyl)amino)thiazol-4-yl)pyrido[3,4-d]pyrimidin-4(3H)-one], the inhibition at 0.1 µM was 20 to 50%. The figure for `Nc1nn(-c2nccc3c(=O)[nH]cnc23)cc1-c1cnn(CCN2CCOCC2)c1` [Compound 29, 8-(3-amino-1′-(2-morpholinoethyl)-1H,1′H-[4,4′-bipyrazol]-1-yl)pyrido[3,4-d]pyrimidin-4(3H)-one] is 20 to 50%; for `O=c1[nH]c(Cc2ccccc2)nc2c(-c3csc(NCCO)n3)nccc12` [Compound 139, 2-benzyl-8-(2-((2-hydroxyethyl)amino)thiazol-4-yl)pyrido[3,4-d]pyrimidin-4(3H)-one] it is less than 20%; for `O=c1[nH]cnc2c(-c3csc(NCC4CCN(C5CCCC5)CC4)n3)nccc12` [Compound 54, 8-(2-(((1-cyclopentylpiperidin-4-yl)methyl)amino)thiazol-4-yl)pyrido[3,4-d]pyrimidin-4(3H)-one] it is not below 50%. Then `CN1CCN(c2ccc(-c3cn(-c4nccc5c(=O)[nH]cnc45)nc3N)cc2)CC1` [Compound 17, 8-(3-amino-4-(4-(4-methylpiperazin-1-yl)phenyl)-1H-pyrazol-1-yl)pyrido[3,4-d]pyrimidin-4(3H)-one], with 20 to 50%. Then `O=c1[nH]cnc2c(-c3csc(NCC4CCN(Cc5ccccc5)CC4)n3)nccc12` [Compound 52, 8-(2-(((1-benzylpiperidin-4-yl)methyl)amino)thiazol-4-yl)pyrido[3,4-d]pyrimidin-4(3H)-one], with not below 50%; and `O=c1[nH]c(COc2ccc(Cl)c(Cl)c2)nc2c(-c3csc(NCCO)n3)nccc12` [Compound 136, 2-((3,4-dichlorophenoxy)methyl)-8-(2-((2-hydroxyethyl)amino)thiazol-4-yl)pyrido[3,4-d]pyrimidin-4(3H)-one], with not below 50%. In the case of `Nc1nc(-c2nccc3c(=O)[nH]c(CCc4ccc(F)cc4)nc23)cs1` [Compound 165, 8-(2-aminothiazol-4-yl)-2-(4-fluorophenethyl)pyrido[3,4-d]pyrimidin-4(3H)-one], the inhibition at 0.1 µM fell in the range of 20 to 50%. Then `CCC(O)CNc1nc(-c2nccc3c(=O)[nH]cnc23)cs1` (stereo not shown) [Compound 60, 8-(2-((2-hydroxybutyl)amino)thiazol-4-yl)pyrido[3,4-d]pyrimidin-4(3H)-one], with 20 to 50%.

Turning to `Cn1cc(-c2cn(-c3nccc4c(=O)[nH]cnc34)nc2N)cn1` [Compound 15, 8-(3-amino-1′-methyl-1H,1′H-[4,4'-bipyrazol]-1-yl)pyrido[3,4-d]pyrimidin-4(3H)-one], the inhibition at 0.1 µM fell in the range of 20 to 50%. Regarding `O=c1[nH]cnc2c(-c3cnn(Cc4ccccc4)c3)nccc12` [Compound 64, 8-(1-benzyl-1H-pyrazol-4-yl)pyrido[3,4-d]pyrimidin-4(3H)-one], the inhibition at 0.1 µM lay in the range of 20 to 50%. Then `O=c1[nH]c(COc2ccc(F)c(Cl)c2)nc2c(-c3csc(NC4CCN(Cc5ccccc5)CC4)n3)nccc12` [Compound 102, 8-(2-((1-benzylpiperidin-4-yl)amino)thiazol-4-yl)-2-((3-chloro-4-fluorophenoxy)methyl) pyrido[3,4-d]pyrimidin-4(3H)-one], with not below 50%; and `C=CCNc1nc(-c2nccc3c(=O)[nH]c(COc4ccc(Cc5ccccc5)cc4)nc23)cs1` [Compound 72, 8-(2-(allylamino)thiazol-4-yl)-2-((4-benzylphenoxy)methyl) pyrido[3,4-d]pyrimidin-4(3H)-one], with 20 to 50%. Then `CN1CCCC1CCNc1nc(-c2nccc3c(=O)[nH]cnc23)cs1` (stereo not shown) [Compound 48, 8-(2-((2-(1-methylpyrrolidin-2-yl)ethyl)amino)thiazol-4-yl)pyrido[3,4-d]pyrimidin-4(3H)-one], with 20 to 50%; and `Nc1ccn(-c2nccc3c(=O)[nH]c(COc4ccc(Cc5ccccc5)cc4)nc23)n1` [Compound 69, 8-(3-amino-1H-pyrazol-1-yl)-2-((4-benzylphenoxy)methyl) pyrido[3,4-d]pyrimidin-4(3H)-one], with less than 20%; and `O=c1[nH]c(COc2ccccc2Cl)nc2c(-c3csc(NCCO)n3)nccc12` [Compound 132, 2-((2-chlorophenoxy)methyl)-8-(2-((2-hydroxyethyl)amino)thiazol-4-yl)pyrido[3,4-d]pyrimidin-4(3H)-one], with 20 to 50%. Take `Cn1cc(-c2cnn(-c3nccc4c(=O)[nH]cnc34)c2)cn1` [Compound 11, 8-(1′-methyl-1H,1′H-[4,4′-bipyrazol]-1-yl)pyrido[3,4-d]pyrimidin-4(3H)-one]: the inhibition at 0.1 µM was less than 20%. Then `Nc1nn(-c2nccc3c(=O)[nH]cnc23)cc1-c1ccc(C(=O)N2CCOCC2)cc1` [Compound 21, 8-(3-amino-4-(4-(morpholine-4-carbonyl)phenyl)-1H-pyrazol-1-yl)pyrido[3,4-d]pyrimidin-4(3H)-one], with not below 50%; and `O=c1[nH]c(-c2cc3ccccc3o2)nc2c(-c3csc(NCCO)n3)nccc12` [Compound 167, 2-(benzofuran-2-yl)-8-(2-((2-hydroxyethyl)amino)thiazol-4-yl)pyrido[3,4-d]pyrimidin-4(3H)-one], with 20 to 50%.

On to `CN1CCN(Cc2cccc(-c3cn(-c4nccc5c(=O)[nH]cnc45)nc3N)c2)CC1` [Compound 37, 8-(3-amino-4-(3-((4-methylpiperazin-1-yl)methyl)phenyl)-1H-pyrazol-1-yl)pyrido[3,4-d]pyrimidin-4(3H)-one], for which the inhibition at 0.1 µM was less than 20%. The figure for `O=c1[nH]c(COc2ccc(F)c(Cl)c2)nc2c(-c3csc(NCCN4CCOCC4)n3)nccc12` [Compound 82, 2-((3-chloro-4-fluorophenoxy)methyl)-8-(2-((2-morpholinoethyl)amino)thiazol-4-yl)pyrido[3,4-d]pyrimidin-4(3H)-one] is not below 50%; for `CN1CCC(CNc2nc(-c3nccc4c(=O)[nH]cnc34)cs2)C1` (stereo not shown) [Compound 59, 8-(2-(((1-methylpyrrolidin-3-yl)methyl)amino)thiazol-4-yl)pyrido[3,4-d]pyrimidin-4(3H)-one] it is 20 to 50%; for `CC(=O)c1ccc(-c2cn(-c3nccc4c(=O)[nH]cnc34)nc2N)cc1` [Compound 24, 8-(4-(4-acetylphenyl)-3-amino-1H-pyrazol-1-yl)pyrido[3,4-d]pyrimidin-4(3H)-one] it is not below 50%. The figure for `CN1CCOC(CNc2nc(-c3nccc4c(=O)[nH]cnc34)cs2)C1` (stereo not shown) [Compound 58, 8-(2-(((4-methylmorpholin-2-yl)methyl)amino)thiazol-4-yl)pyrido[3,4-d]pyrimidin-4(3H)-one] is 20 to 50%. Then `CN1CCN(Cc2ccc(-c3cnn(-c4nccc5c(=O)[nH]cnc45)c3)cc2)CC1` [Compound 2, 8-(4-(4-((4-methylpiperazin-1-yl)methyl)phenyl)-1H-pyrazol-1-yl)pyrido[3,4-d]pyrimidin-4(3H)-one], with less than 20%.

For the compound `O=c1[nH]c(COc2ccc(Cc3ccccc3)cc2)nc2c(-c3csc(Nc4ccccc4)n3)nccc12` [Compound 73, 2-((4-benzylphenoxy)methyl)-8-(2-(phenylamino)thiazol-4-yl)pyrido[3,4-d]pyrimidin-4(3H)-one], the inhibition at 0.1 µM is less than 20%. The figure for `O=c1[nH]c(COc2ccc(F)c(Cl)c2)nc2c(-c3ccccn3)nccc12` [Compound 80, 2-((3-chloro-4-fluorophenoxy)methyl)-8-(pyridin-2-yl)pyrido[3,4-d]pyrimidin-4(3H)-one] is 20 to 50%. `O=c1[nH]c(COCc2ccccc2)nc2c(-c3csc(NCCCO)n3)nccc12` [Compound 147, 2-((benzyloxy)methyl)-8-(2-((3-hydroxypropyl)amino)thiazol-4-yl)pyrido[3,4-d]pyrimidin-4(3H)-one]: the inhibition at 0.1 µM is less than 20%.
